#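 Compound exposure: 48 hours, 5 concentrations, 96-well plates. The concentration for 50% growth inhibition is given as GI50. TGI marks complete inhibition of growth.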
# Tests used:
# Assay in all cases: growth of human tumour cells (NCI), 48 h
# 786-0 renal = test system: 786-0 renal
# A498 renal = test system: A498 renal
# A549 NSCLC = test system: A549 NSCLC
# ACHN renal = test system: ACHN renal
# CCRF-CEM leukemia = test system: CCRF-CEM leukemia
# COLO 205 colon = test system: COLO 205 colon
# DLD-1 colon = test system: DLD-1 colon
# DMS 114 small cell lung = test system: DMS 114 small cell lung
# DMS 273 small cell lung = test system: DMS 273 small cell lung
# EKVX NSCLC = test system: EKVX NSCLC
# HCT-116 colon = test system: HCT-116 colon
# HCT-15 colon = test system: HCT-15 colon
# HOP-18 NSCLC = test system: HOP-18 NSCLC
# HOP-62 NSCLC = test system: HOP-62 NSCLC
# HOP-92 NSCLC = test system: HOP-92 NSCLC
# HT29 colon = test system: HT29 colon
# IGROV1 ovarian = test system: IGROV1 ovarian
# K-562 leukemia = test system: K-562 leukemia
# KM20L2 colon = test system: KM20L2 colon
# LOX IMVI melanoma = test system: LOX IMVI melanoma
# LXFL 529 NSCLC = test system: LXFL 529 NSCLC
# M14 melanoma = test system: M14 melanoma
# M19-MEL melanoma = test system: M19-MEL melanoma
# MALME-3M melanoma = test system: MALME-3M melanoma
# MOLT-4 leukemia = test system: MOLT-4 leukemia
# NCI-H226 lung = test system: NCI-H226 lung
# NCI-H23 lung = test system: NCI-H23 lung
# NCI-H460 lung = test system: NCI-H460 lung
# NCI-H522 lung = test system: NCI-H522 lung
# OVCAR-3 ovarian = test system: OVCAR-3 ovarian
# OVCAR-4 ovarian = test system: OVCAR-4 ovarian
# OVCAR-5 ovarian = test system: OVCAR-5 ovarian
# OVCAR-8 ovarian = test system: OVCAR-8 ovarian
# RPMI-8226 leukemia = test system: RPMI-8226 leukemia
# RXF 393 renal = test system: RXF 393 renal
# SF-268 CNS = test system: SF-268 CNS
# SF-295 CNS = test system: SF-295 CNS
# SF-539 CNS = test system: SF-539 CNS
# SK-MEL-2 melanoma = test system: SK-MEL-2 melanoma
# SK-MEL-28 melanoma = test system: SK-MEL-28 melanoma
# SK-OV-3 ovarian = test system: SK-OV-3 ovarian
# SN12C renal = test system: SN12C renal
# SNB-19 CNS = test system: SNB-19 CNS
# SNB-75 CNS = test system: SNB-75 CNS
# SNB-78 CNS = test system: SNB-78 CNS
# SW-620 colon = test system: SW-620 colon
# TK-10 renal = test system: TK-10 renal
# U251 CNS = test system: U251 CNS
# UACC-257 melanoma = test system: UACC-257 melanoma
# UACC-62 melanoma = test system: UACC-62 melanoma
# UO-31 renal = test system: UO-31 renal
# XF 498 CNS = test system: XF 498 CNS
# HCC-2998 colon = test system: HCC-2998 colon
# HL-60(TB) leukemia = test system: HL-60(TB) leukemia
# KM12 colon = test system: KM12 colon
# SR leukemia = test system: SR leukemia
# SK-MEL-5 melanoma = test system: SK-MEL-5 melanoma
smiles,measurement,setting,value
O=S(=O)([O-])c1ccc(N=Cc2ccccc2[O-])cc1.O=S(=O)([O-])c1ccc(N=Cc2ccccc2[O-])cc1.[O]=[U+2]=[O],GI50,786-0 renal,42.7 µM
same,TGI,786-0 renal,> 100 µM
same,GI50,A498 renal,> 100 µM
same,TGI,A498 renal,> 100 µM
same,GI50,A549 NSCLC,> 100 µM
same,TGI,A549 NSCLC,> 100 µM
same,GI50,ACHN renal,> 100 µM
same,TGI,ACHN renal,> 100 µM
same,GI50,CCRF-CEM leukemia,> 100 µM
same,TGI,CCRF-CEM leukemia,> 100 µM
same,GI50,COLO 205 colon,84.8 µM
same,TGI,COLO 205 colon,> 100 µM
same,GI50,DLD-1 colon,67.9 µM
same,TGI,DLD-1 colon,> 100 µM
same,GI50,DMS 114 small cell lung,33.1 µM
same,TGI,DMS 114 small cell lung,> 100 µM
same,GI50,DMS 273 small cell lung,> 100 µM
same,TGI,DMS 273 small cell lung,> 100 µM
same,GI50,EKVX NSCLC,> 100 µM
same,TGI,EKVX NSCLC,> 100 µM
same,GI50,HCT-116 colon,20 µM
same,TGI,HCT-116 colon,> 100 µM
same,GI50,HCT-15 colon,31.3 µM
same,TGI,HCT-15 colon,> 100 µM
same,GI50,HOP-18 NSCLC,> 100 µM
same,TGI,HOP-18 NSCLC,> 100 µM
same,GI50,HOP-62 NSCLC,81.7 µM
same,TGI,HOP-62 NSCLC,> 100 µM
same,GI50,HOP-92 NSCLC,> 100 µM
same,TGI,HOP-92 NSCLC,> 100 µM
same,GI50,HT29 colon,> 100 µM
same,TGI,HT29 colon,> 100 µM
same,GI50,IGROV1 ovarian,83.8 µM
same,TGI,IGROV1 ovarian,> 100 µM
same,GI50,K-562 leukemia,> 100 µM
same,TGI,K-562 leukemia,> 100 µM
same,GI50,KM20L2 colon,> 100 µM
same,TGI,KM20L2 colon,> 100 µM
same,GI50,LOX IMVI melanoma,> 100 µM
same,TGI,LOX IMVI melanoma,> 100 µM
same,GI50,LXFL 529 NSCLC,> 100 µM
same,TGI,LXFL 529 NSCLC,> 100 µM
same,GI50,M14 melanoma,> 100 µM
same,TGI,M14 melanoma,> 100 µM
same,GI50,M19-MEL melanoma,> 100 µM
same,TGI,M19-MEL melanoma,> 100 µM
same,GI50,MALME-3M melanoma,> 100 µM
same,TGI,MALME-3M melanoma,> 100 µM
same,GI50,MOLT-4 leukemia,64.1 µM
same,TGI,MOLT-4 leukemia,> 100 µM
same,GI50,NCI-H226 lung,> 100 µM
same,TGI,NCI-H226 lung,> 100 µM
same,GI50,NCI-H23 lung,> 100 µM
same,TGI,NCI-H23 lung,> 100 µM
same,GI50,NCI-H460 lung,> 100 µM
same,TGI,NCI-H460 lung,> 100 µM
same,GI50,NCI-H522 lung,> 100 µM
same,TGI,NCI-H522 lung,> 100 µM
same,GI50,OVCAR-3 ovarian,> 100 µM
same,TGI,OVCAR-3 ovarian,> 100 µM
same,GI50,OVCAR-4 ovarian,> 100 µM
same,TGI,OVCAR-4 ovarian,> 100 µM
same,GI50,OVCAR-5 ovarian,> 100 µM
same,TGI,OVCAR-5 ovarian,> 100 µM
same,GI50,OVCAR-8 ovarian,> 100 µM
same,TGI,OVCAR-8 ovarian,> 100 µM
same,GI50,RPMI-8226 leukemia,> 100 µM
same,TGI,RPMI-8226 leukemia,> 100 µM
same,GI50,RXF 393 renal,81.7 µM
same,TGI,RXF 393 renal,> 100 µM
same,GI50,SF-268 CNS,> 100 µM
same,TGI,SF-268 CNS,> 100 µM
same,GI50,SF-295 CNS,> 100 µM
same,TGI,SF-295 CNS,> 100 µM
same,GI50,SF-539 CNS,54.7 µM
same,TGI,SF-539 CNS,> 100 µM
same,GI50,SK-MEL-2 melanoma,> 100 µM
same,TGI,SK-MEL-2 melanoma,> 100 µM
same,GI50,SK-MEL-28 melanoma,> 100 µM
same,TGI,SK-MEL-28 melanoma,> 100 µM
same,GI50,SK-OV-3 ovarian,> 100 µM
same,TGI,SK-OV-3 ovarian,> 100 µM
same,GI50,SN12C renal,> 100 µM
same,TGI,SN12C renal,> 100 µM
same,GI50,SNB-19 CNS,66.4 µM
same,TGI,SNB-19 CNS,> 100 µM
same,GI50,SNB-75 CNS,> 100 µM
same,TGI,SNB-75 CNS,> 100 µM
same,GI50,SNB-78 CNS,80.4 µM
same,TGI,SNB-78 CNS,> 100 µM
same,GI50,SW-620 colon,> 100 µM
same,TGI,SW-620 colon,> 100 µM
same,GI50,TK-10 renal,30.7 µM
same,TGI,TK-10 renal,71.7 µM
same,GI50,U251 CNS,94.7 µM
same,TGI,U251 CNS,> 100 µM
same,GI50,UACC-257 melanoma,> 100 µM
same,TGI,UACC-257 melanoma,> 100 µM
same,GI50,UACC-62 melanoma,> 100 µM
same,TGI,UACC-62 melanoma,> 100 µM
same,GI50,UO-31 renal,> 100 µM
same,TGI,UO-31 renal,> 100 µM
same,GI50,XF 498 CNS,> 100 µM
same,TGI,XF 498 CNS,> 100 µM
Cc1[nH]c(=O)nc2c1C(NCCCN(C)C)c1cc(Cl)ccc1N2 (stereo not given),TGI,786-0 renal,27.7 µM
same,TGI,A549 NSCLC,28.1 µM
same,TGI,ACHN renal,30.2 µM
same,TGI,CCRF-CEM leukemia,34.8 µM
same,TGI,COLO 205 colon,26 µM
same,TGI,DLD-1 colon,35.3 µM
same,TGI,DMS 114 small cell lung,28.2 µM
same,TGI,DMS 273 small cell lung,25.3 µM
same,TGI,EKVX NSCLC,30.1 µM
same,TGI,HCC-2998 colon,30.1 µM
same,TGI,HCT-116 colon,28.5 µM
same,TGI,HL-60(TB) leukemia,34.4 µM
same,TGI,HOP-62 NSCLC,27.9 µM
same,TGI,HOP-92 NSCLC,23.4 µM
same,TGI,HT29 colon,22.2 µM
same,TGI,IGROV1 ovarian,30.1 µM
same,TGI,K-562 leukemia,26.9 µM
same,TGI,KM12 colon,30.3 µM
same,TGI,KM20L2 colon,24.4 µM
same,TGI,LOX IMVI melanoma,24.5 µM
same,TGI,LXFL 529 NSCLC,30.6 µM
same,TGI,M14 melanoma,21.3 µM
same,TGI,M19-MEL melanoma,12.9 µM
same,TGI,MALME-3M melanoma,30.3 µM
same,TGI,MOLT-4 leukemia,44.6 µM
same,TGI,NCI-H226 lung,31 µM
same,TGI,NCI-H23 lung,32.3 µM
same,TGI,NCI-H460 lung,29 µM
same,TGI,NCI-H522 lung,28.5 µM
same,TGI,OVCAR-3 ovarian,33.6 µM
same,TGI,OVCAR-8 ovarian,28.7 µM
same,TGI,RPMI-8226 leukemia,44 µM
same,TGI,RXF 393 renal,27 µM
same,TGI,SF-268 CNS,30.5 µM
same,TGI,SF-295 CNS,30.7 µM
same,TGI,SF-539 CNS,26.3 µM
same,TGI,SK-MEL-2 melanoma,31.5 µM
same,TGI,SK-MEL-28 melanoma,27.2 µM
same,TGI,SK-OV-3 ovarian,32.1 µM
same,TGI,SN12C renal,28.2 µM
same,TGI,SNB-19 CNS,31.2 µM
same,TGI,SNB-75 CNS,26.2 µM
same,TGI,SNB-78 CNS,33.2 µM
same,TGI,SR leukemia,27.3 µM
same,TGI,SW-620 colon,28.6 µM
same,TGI,TK-10 renal,32.5 µM
same,TGI,U251 CNS,29.3 µM
same,TGI,UACC-257 melanoma,26 µM
same,TGI,UACC-62 melanoma,26.2 µM
same,TGI,UO-31 renal,26.4 µM
same,TGI,XF 498 CNS,30.8 µM
COc1ccc(/C=N/NC(=O)c2sc(=S)n(-c3ccccc3)c2N)cc1,TGI,A549 NSCLC,> 100 µM
same,TGI,ACHN renal,> 100 µM
same,TGI,CCRF-CEM leukemia,> 100 µM
same,TGI,COLO 205 colon,> 100 µM
same,TGI,DLD-1 colon,> 100 µM
same,TGI,HCC-2998 colon,> 100 µM
same,TGI,HCT-116 colon,> 100 µM
same,TGI,HL-60(TB) leukemia,> 100 µM
same,TGI,HOP-18 NSCLC,> 100 µM
same,TGI,HOP-62 NSCLC,> 100 µM
same,TGI,HOP-92 NSCLC,79.5 µM
same,TGI,HT29 colon,> 100 µM
same,TGI,IGROV1 ovarian,> 100 µM
same,TGI,K-562 leukemia,> 100 µM
same,TGI,KM12 colon,> 100 µM
same,TGI,LXFL 529 NSCLC,> 100 µM
same,TGI,M19-MEL melanoma,> 100 µM
same,TGI,MOLT-4 leukemia,> 100 µM
same,TGI,NCI-H226 lung,> 100 µM
same,TGI,NCI-H23 lung,> 100 µM
same,TGI,NCI-H460 lung,> 100 µM
same,TGI,NCI-H522 lung,> 100 µM
same,TGI,OVCAR-3 ovarian,> 100 µM
same,TGI,OVCAR-5 ovarian,> 100 µM
same,TGI,OVCAR-8 ovarian,> 100 µM
same,TGI,SF-268 CNS,> 100 µM
same,TGI,SF-295 CNS,> 100 µM
same,TGI,SF-539 CNS,> 100 µM
same,TGI,SK-MEL-28 melanoma,> 100 µM
same,TGI,SK-MEL-5 melanoma,> 100 µM
same,TGI,SK-OV-3 ovarian,> 100 µM
same,TGI,SNB-19 CNS,> 100 µM
same,TGI,SNB-75 CNS,8.67 µM
same,TGI,SR leukemia,> 100 µM
same,TGI,SW-620 colon,> 100 µM
same,TGI,TK-10 renal,> 100 µM
same,TGI,U251 CNS,> 100 µM
same,TGI,UACC-257 melanoma,> 100 µM
same,TGI,UACC-62 melanoma,> 100 µM
same,TGI,UO-31 renal,> 100 µM
